Source: the NIST ThermoML archive (doi:10.1021/je8006265)
± gives the expanded uncertainty stated by the source.

Conditions: 298.15 K, 101.33 kPa

| Compound | mass density (Liquid) | mass density (Crystal) |
| --- | --- | --- |
| Nc1ccccc1 [aniline] | 1017.42 ± 0.2 kg/m3 | – |
| CCCCCCCCCCCCCCCC [hexadecane] | 773.19 ± 0.32 kg/m3 | – |
| c1ccncc1 [pyridine] | 978.25 ± 0.27 kg/m3 | – |
| c1ccc2[nH]ccc2c1 [1H-indole] | – | 1216.68 ± 1.9 kg/m3 |

Results, then the compound that gave them:

| mass density (Liquid) | mass density (Crystal) | Compound |
| --- | --- | --- |
| 1089.45 ± 0.31 kg/m3 | – | c1ccc2ncccc2c1 [quinoline] |
| 965.9 ± 2.9 kg/m3 | – | c1cc[nH]c1 [pyrrole] |
